# Data: article PMC10570359, “Dietary supplementation of cystinotic mice by lysine inhibits the megalin pathway and decreases kidney cystine content” (Scientific Reports, 2023)
# Where two headings read alike, the source gives them in different places.
# Legend:
# porcine megalin [1] = biological target: T1, porcine megalin (Sus scrofa, UniProt C0HL13); assay: Surface plasmon resonance: competition for TC:B12 binding to chip-immobilized megalin; details: for IC50: 10 µg/ml TC:B12 in 0 to 100 mM amino-acid, Biacore; for SPR signal of amino-acid alone on megalin chip: chips exposed to increasing concentrations of amino-acid, no analyte
# Experimental: (§1) To directly address whether supra-physiological concentrations of dibasic amino-acids (dAAs) can interfere with binding of protein ligands to megalin, we used surface plasmon resonance. Sensor chips were derivatized with porcine megalin at high density. […] After flushing, chips were incubated with 10 µg/ml of three analytes: the megalin chaperone, RAP (receptor-associated protein), as positive control (not shown), or two physiological megalin ligands: transcobalamine:cobalamine complexes (TC:B12; Fig. 1; sensorgrams shown at Supplemental Fig. 1a) or lysozyme (Supplemental Fig. 1b), diluted in 0 to 100 mM of the same amino-acids in buffer. […] The supraphysiological range for effective competition in vitro defined the necessary increment in urinary concentration from dietary supplementation for significant competition in vivo.
# Figure 1 Acellular assay: direct competition for transcobalamine:cobalamine binding to megalin immobilized on Biacore sensor chips. Signals of sensorgrams (shown in Supplemental Fig. 1) were normalized to control signal without AA supplementation, taken as the unity, and are means ± SEM of at least four independent technical duplicate values at each of the indicated amino-acid-concentrations.
# (§2) Surface plasmon resonance (SPR) analysis of the binding to chip-immobilized megalin of receptor-associated protein (RAP), transcobalamine:cobalamine complex (TC:B12) and lysozyme was carried out using a Biacore T200 instrument (Uppsala, Sweden). The sensor chips (type CM5) were activated with a 1:1 mixture of 0.2 M N-ethyl-N′-(3-dimethylaminopropyl) carbodiimide and 0.05 M N-hydroxysuccinimide in H2O. Porcine megalin[49] was immobilized on the chip in 10 mM sodium acetate, pH 4.0, and the remaining binding sites were blocked with 1 M ethanolamine, pH 8.5. The SPR signal generated from immobilized megalin were obtained with a density of 4.5 fmol protein/mm^2.
# (§3) Human RAP was produced as recombinant protein in E. coli[50] and used to validate the sensor chip. TC was purified and complexed with B12 as described (TC/B12)[50],[51]. Human recombinant lysozyme was purchased from Sigma-Aldrich (expressed in rice, # L1667). Sensorgrams were generated using each of these three ligands at 10 µg/ml in a running buffer consisting of 10 mM Hepes, 150 mM NaCl, 4 mM CaCl2 and 0.05% Tween 20, pH 7.4. The flow cells were regenerated with 1 M ethanolamine pH 9.0. Analyte testing was performed as a dual injection starting with running buffer supplemented with the defined concentrations of amino acids followed by injection of analyte in the same solution. The pH of all buffers was adjusted after amino acids addition. All binding experiments were made as at least independent triplicate of technical duplicates and data were analyzed using the Biacore T200 evaluation software version 3.1.
# porcine megalin [2] = biological target: T1, porcine megalin; assay: Surface plasmon resonance: competition for lysozyme binding to chip-immobilized megalin; details: 10 µg/ml lysozyme in 0 to 100 mM amino-acid
# Experimental: as §1, §2, §3
# [3] = Tolerance of prolonged 5x-dAA diets in mice; details: ad libitum 5x-supplemented solid diet, approx. 45 mmoles/kg/day
# Text: Ctns knockout mice (C57BL/6 background) were kindly provided by Dr. Corinne Antignac[18]. […] The same increase was set for L- (and D-) lysine.
# Ctns KO mice kidneys = assay: Kidney cystine content in Ctns KO mice; assay type: in vivo; details: diet from 6-to-8 months-of-age
# Experimental: For this pilot study, we selected tissue accumulation of cystine as a clear and measurable outcome to quantify long-term interference of dAAs with the endocytic supply of disulfide-rich plasma proteins to kidney PTCs.
# (§4) Mice were euthanized by cabon dioxide (CO2) inhalation. Dissected tissues were homogenized in 10 mM N-ethylmaleimide. Protein fraction was obtained after precipitation in 10% 5-sulfosalicylic acid and centrifugation at 20,000g for 20 min at 4 °C. Protein pellet was resuspended in 100 mM NaOH and assayed by the Bio-Rad Protein Assay according to manufacturer’s instructions. Supernatant (50 μl) was mixed with 50 μL of the internal standard solution (Cystine d6) and vortexed for 5 s; then the mixture was extracted with 200 μl of acetonitrile, vortexed for at least 30 s, then centrifuged at 13,000 rpm for 9 min. Liquid chromatography and mass spectrometry analysis was performed by a UHPLC Agilent 1290 Infinity II 6470 (Agilent Technologies) equipped with an ESI-JET-STREAM source operating in the positive ion (ESI +) mode. Equipment was controlled and data were analyzed using MassHunter Workstation (Agilent Technologies). The separation column was InfinityLab Poroshell 120 HILIC 1.9 μm 100 × 2.1 mm (Agilent Technologies). Validation of the method was performed basing on the US Food and Drug Administration (FDA) guideline for industry bioanalytical method validation (FDA 2013) and European Medicines Agency (EMA) guideline (EMA 2011). The assay was validated for selectivity, specificity, linearity and limit of quantification, accuracy and precision, matrix effects and recovery, and stability.
# megalin pathway [4] = assay: LMW proteinuria (urinary CC16) in WT mice under 5x-dAA diets; assay type: in vivo; details: WT C57Bl-6 mice, 3 weeks diet, vs control diet
# Experimental: In a second experiment, 5x-D-lysine was compared to regular diet.
# (§5) Body weight was recorded before entering the metabolic cages. […] Creatinine clearance was normalized by mouse body weight.
# Ctns KO mice liver = assay: Liver cystine content in Ctns KO mice; assay type: in vivo; details: diet from 6-to-8 months-of-age
# Experimental: In the second study to explore the effects of the D-lysine stereoisomer, Ctns KO mice received control vs 5x-D-lysine diet from 6-to-8 months-of-age. Mean kidney cystine value at 8 months-of-age under control diet was 109.4 ± 23.0 nmol hemi-cystine/mg kidney protein, slightly lower than in the first study.
# as §4, with “The separation column was InfinityLab Poroshell 120 HILIC 1.9 μm 100 × 2.1 mm (Agilent Technologies). Validation of the method was performed basing on the US Food and Drug Administration (FDA) guideline for industry bioanalytical method validation (FDA 2013) and European Medicines Agency (EMA) guideline (EMA 2011).” left out
# [5] = Urinary and serum amino-acid concentration by mass spectrometry in Ctns KO mice; assay type: in vivo
# Experimental: as §5
# Quantitative analysis of underivatized amino-acids in serum and urine samples was performed using the Amino Acids LC–MS/MS analysis Kit Jasem®. […] Equipment was controlled and data were analyzed using MassHunter Workstation (Agilent Technologies). The assay was validated for selectivity, specificity, linearity and limit of quantification, accuracy and precision, matrix effects and recovery, and stability.
# megalin pathway [6] = assay: LMW proteinuria / albuminuria in Ctns KO mice under 5x-dAA diets
# Experimental: After 24-h adaptation in metabolic cages, urine was collected during the following 24 h in presence of 0.1% sodium azide and 1x-protease inhibitors (Thermo Scientific). When in metabolic cages, mice had free access to tap water and food. Blood was collected 2 days before starting the treatments and entry into metabolic cages (baseline) and at the sacrifice to obtain serum. Body weight was recorded before entering the metabolic cages. Urine and serum analyses were performed by the veterinary laboratory Appialab Srl (Rome, Italy). Urinary levels of CC16 were measured by the Mouse Clara Cell Protein 16 kit 96 T #EKU03200 (Biomatik) according to manufacturer’s instructions. Serum levels of cystatin-C were measured by the Mouse/Rat Cystatin C Quantitative ELISA #MSCTC0 (R&D Systems). […] Creatinine clearance was normalized by mouse body weight.
# [7] = Clinical urine and serum analyses in Ctns KO mice under 5x-dAA diets; details: Ctns KO mice at 8 months of age, 2 months of treatment, mean ± SEM
# Text: We also attempted to further discriminate between luminal (competition for surface megalin binding) and intracellular metabolic effects (see Discussion) by comparing the effects of 5x-L-lysine to its stereoisomer, 5x-D-lysine. Unless stated otherwise, diets were initiated at 6 months-of-age, and mice were studied then euthanized at 8 months-of-age (2-months treatment). This time frame was selected for two reasons. First, in the mouse cystinosis model, this an appropriate window to evaluate the impact on PTC alterations based on changes in kidney cystine accumulation and overall function. […] Second, although primary prevention by earlier intervention (from 2-to-6 months-of-age) better mimics perinatal genetic megalin ablation, thus could be more efficient, secondary intervention (starting at 6 months-of-age), when disease becomes clinically apparent, is more relevant for further translational studies.
# as §5
# [8] = read-out: IC50 for TC:B12/megalin interaction (mM; 95%CI)
# [9] = Ctns KO mice at 8 months of age, 24-h urine, mean ± SEM
# [10] = Ctns KO mice at 8 months of age, 2 months of treatment, urine, mean ± SEM
# [11] = IC50 for TC:B12/megalin interaction (mM; 95%CI)
# T1 sequence (C0HL13 26-4652): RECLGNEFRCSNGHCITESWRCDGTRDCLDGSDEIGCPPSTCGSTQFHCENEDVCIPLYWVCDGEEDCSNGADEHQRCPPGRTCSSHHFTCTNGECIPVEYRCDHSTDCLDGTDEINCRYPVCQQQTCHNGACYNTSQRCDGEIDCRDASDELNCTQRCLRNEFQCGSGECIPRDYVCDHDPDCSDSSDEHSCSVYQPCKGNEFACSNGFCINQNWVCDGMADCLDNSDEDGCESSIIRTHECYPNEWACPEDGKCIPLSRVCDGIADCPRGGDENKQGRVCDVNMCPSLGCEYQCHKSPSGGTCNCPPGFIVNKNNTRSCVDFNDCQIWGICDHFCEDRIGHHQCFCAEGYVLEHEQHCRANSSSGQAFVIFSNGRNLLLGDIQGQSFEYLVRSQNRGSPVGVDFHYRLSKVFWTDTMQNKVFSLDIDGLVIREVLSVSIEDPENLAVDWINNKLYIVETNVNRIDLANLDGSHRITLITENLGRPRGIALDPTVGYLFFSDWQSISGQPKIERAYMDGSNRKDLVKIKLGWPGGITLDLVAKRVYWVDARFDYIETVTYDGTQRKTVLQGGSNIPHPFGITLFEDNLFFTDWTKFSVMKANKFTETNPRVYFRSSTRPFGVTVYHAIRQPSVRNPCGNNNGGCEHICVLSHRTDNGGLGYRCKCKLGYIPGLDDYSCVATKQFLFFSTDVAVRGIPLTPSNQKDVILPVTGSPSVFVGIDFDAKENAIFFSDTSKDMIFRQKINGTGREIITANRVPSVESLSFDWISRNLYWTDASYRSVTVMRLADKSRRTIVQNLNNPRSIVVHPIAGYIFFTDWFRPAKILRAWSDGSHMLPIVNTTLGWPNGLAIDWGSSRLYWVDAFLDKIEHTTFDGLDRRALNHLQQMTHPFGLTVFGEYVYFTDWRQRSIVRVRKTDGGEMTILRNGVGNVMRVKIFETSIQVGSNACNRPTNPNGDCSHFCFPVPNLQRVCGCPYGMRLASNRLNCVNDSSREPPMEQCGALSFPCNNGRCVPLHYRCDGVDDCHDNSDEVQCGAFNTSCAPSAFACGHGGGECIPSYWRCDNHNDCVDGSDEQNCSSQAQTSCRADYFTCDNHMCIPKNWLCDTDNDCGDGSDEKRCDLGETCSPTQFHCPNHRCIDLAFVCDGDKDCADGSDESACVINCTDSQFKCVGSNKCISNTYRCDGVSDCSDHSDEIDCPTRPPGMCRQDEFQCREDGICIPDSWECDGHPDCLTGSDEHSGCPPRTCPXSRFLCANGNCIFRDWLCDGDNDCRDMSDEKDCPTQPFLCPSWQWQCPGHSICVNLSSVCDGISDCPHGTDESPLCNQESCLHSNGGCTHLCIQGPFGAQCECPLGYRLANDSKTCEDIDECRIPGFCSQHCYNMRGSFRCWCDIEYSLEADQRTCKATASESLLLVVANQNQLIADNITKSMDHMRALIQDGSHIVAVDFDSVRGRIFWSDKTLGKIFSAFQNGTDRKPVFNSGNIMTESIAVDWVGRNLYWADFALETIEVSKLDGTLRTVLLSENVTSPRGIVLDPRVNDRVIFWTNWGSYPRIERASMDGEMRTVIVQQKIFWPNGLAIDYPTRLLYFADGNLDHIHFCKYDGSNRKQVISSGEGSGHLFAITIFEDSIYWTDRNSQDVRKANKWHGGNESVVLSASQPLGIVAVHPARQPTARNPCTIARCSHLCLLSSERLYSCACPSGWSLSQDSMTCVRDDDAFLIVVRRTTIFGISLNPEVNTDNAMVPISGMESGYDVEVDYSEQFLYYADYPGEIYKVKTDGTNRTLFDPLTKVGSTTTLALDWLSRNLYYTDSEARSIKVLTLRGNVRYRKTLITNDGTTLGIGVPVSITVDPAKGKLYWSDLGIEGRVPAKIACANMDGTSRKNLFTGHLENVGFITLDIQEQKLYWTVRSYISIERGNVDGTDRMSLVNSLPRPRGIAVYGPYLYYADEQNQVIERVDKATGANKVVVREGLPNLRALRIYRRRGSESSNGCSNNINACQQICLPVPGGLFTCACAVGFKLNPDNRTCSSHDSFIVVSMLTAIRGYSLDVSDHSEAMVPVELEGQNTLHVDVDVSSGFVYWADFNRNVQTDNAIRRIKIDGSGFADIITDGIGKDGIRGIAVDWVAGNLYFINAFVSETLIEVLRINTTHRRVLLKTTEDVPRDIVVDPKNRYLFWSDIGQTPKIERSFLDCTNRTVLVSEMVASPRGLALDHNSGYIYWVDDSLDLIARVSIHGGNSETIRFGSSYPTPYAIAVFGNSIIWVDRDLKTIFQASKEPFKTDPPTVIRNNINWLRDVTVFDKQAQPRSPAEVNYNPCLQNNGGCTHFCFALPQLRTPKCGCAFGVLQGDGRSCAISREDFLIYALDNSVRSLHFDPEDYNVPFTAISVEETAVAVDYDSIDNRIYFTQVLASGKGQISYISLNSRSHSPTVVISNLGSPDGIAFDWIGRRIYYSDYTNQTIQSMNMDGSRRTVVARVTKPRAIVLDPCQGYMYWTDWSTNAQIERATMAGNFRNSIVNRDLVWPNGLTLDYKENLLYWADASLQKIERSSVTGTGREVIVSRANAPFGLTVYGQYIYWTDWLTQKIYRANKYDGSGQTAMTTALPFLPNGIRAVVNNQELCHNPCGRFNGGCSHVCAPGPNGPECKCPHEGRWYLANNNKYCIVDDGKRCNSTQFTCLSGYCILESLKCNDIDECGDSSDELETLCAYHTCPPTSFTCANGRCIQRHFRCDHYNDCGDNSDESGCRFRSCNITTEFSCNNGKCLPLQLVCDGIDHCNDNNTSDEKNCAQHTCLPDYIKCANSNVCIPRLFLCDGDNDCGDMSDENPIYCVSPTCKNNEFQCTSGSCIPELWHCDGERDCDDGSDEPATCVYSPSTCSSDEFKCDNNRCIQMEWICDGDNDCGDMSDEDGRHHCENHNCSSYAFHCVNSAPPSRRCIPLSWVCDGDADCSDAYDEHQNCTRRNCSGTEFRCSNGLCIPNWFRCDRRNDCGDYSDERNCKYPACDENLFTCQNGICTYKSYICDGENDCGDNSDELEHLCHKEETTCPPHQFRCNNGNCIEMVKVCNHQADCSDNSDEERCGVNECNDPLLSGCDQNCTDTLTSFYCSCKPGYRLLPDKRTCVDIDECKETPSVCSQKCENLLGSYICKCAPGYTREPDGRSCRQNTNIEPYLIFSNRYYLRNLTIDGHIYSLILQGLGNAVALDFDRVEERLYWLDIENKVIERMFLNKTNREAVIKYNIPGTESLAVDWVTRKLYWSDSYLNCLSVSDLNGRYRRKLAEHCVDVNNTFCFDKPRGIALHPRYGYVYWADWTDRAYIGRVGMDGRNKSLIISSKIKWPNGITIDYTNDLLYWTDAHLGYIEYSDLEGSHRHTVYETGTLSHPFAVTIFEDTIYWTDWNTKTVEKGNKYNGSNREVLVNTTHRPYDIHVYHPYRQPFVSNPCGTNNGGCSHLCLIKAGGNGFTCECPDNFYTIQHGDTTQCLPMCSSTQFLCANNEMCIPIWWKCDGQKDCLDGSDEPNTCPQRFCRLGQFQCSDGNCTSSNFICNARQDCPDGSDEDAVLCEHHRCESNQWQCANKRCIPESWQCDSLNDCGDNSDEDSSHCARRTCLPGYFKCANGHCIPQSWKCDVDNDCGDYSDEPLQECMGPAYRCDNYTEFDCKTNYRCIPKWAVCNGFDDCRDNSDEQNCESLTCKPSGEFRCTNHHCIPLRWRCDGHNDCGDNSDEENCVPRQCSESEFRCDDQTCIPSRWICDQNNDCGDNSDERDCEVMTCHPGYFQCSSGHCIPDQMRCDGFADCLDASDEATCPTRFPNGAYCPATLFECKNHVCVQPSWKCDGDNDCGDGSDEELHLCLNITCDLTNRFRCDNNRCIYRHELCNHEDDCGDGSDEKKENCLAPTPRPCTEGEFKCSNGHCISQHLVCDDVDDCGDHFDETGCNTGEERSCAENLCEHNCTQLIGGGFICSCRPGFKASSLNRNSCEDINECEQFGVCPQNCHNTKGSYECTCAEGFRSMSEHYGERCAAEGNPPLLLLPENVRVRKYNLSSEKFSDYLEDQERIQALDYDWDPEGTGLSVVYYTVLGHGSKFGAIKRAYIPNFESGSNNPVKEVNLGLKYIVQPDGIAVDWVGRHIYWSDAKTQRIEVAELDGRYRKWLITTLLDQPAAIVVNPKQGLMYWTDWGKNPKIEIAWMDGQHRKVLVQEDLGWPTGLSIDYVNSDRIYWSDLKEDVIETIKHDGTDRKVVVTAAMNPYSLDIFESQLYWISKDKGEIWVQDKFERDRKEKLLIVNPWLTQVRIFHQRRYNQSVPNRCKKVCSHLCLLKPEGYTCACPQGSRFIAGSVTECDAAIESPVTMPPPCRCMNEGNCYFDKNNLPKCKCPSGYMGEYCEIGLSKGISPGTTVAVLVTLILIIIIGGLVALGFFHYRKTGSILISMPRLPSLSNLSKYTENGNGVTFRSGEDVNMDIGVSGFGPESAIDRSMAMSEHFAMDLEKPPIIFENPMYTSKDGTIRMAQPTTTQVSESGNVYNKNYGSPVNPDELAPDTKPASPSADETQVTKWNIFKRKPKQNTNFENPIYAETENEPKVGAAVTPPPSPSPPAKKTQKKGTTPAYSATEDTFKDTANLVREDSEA
smiles,measurement,setting,value
"NC(N)=NCCC[C@@H](N)C(=O)O [5x-D-arginine, D-arginine]",IC50,porcine megalin [1]; [8],60 mM
same,SPR signal of amino-acid alone on megalin chip,porcine megalin [1],no signal was detected
same,effect on megalin binding of lysozyme,porcine megalin [2],concentration-dependent decrease
same,tolerance of prolonged diet,[3],weight loss and eventual high mortality
"NCCCC[C@@H](N)C(=O)O [5x-D-lysine, D-lysine]",mean kidney cystine at 8 months-of-age,Ctns KO mice kidneys; Ctns KO female mice,44.6 ± 10.8 nmol hemi-cystine/mg kidney protein
same,kidney cystine accumulation during the treatment period,Ctns KO mice kidneys; Ctns KO mice,probably fully arrested
same,increase of urinary excretion of CC16 (normalized for creatinine excretion),megalin pathway [4],20 fold
same,liver cystine level at 8 months-of-age,Ctns KO mice liver,did not affect
same,IC50,porcine megalin [1]; [8],22 mM
same,SPR signal of amino-acid alone on megalin chip,porcine megalin [1],no signal was detected
same,effect on megalin binding of lysozyme,porcine megalin [2],concentration-dependent decrease
same,tolerance of prolonged diet,[3],strong polyuria but no weight loss
same,Urinary alanine,[5]; [9],1097 ± 106.5 mM/M creatinine
same,Urinary arginine,[5]; [9],265 ± 27.5 mM/M creatinine
same,Urinary cystine,[5]; [9],481.6 ± 32.8 mM/M creatinine
same,Urinary glycine,[5]; [9],1066 ± 162 mM/M creatinine
same,Urinary lysine,[5]; [9],"123,851 ± 8548 mM/M creatinine"
same,urinary lysine concentration reached,"[5]; Ctns KO mice, daily urine collections",~ 150 mM
same,increase of argininuria,"[5]; Ctns KO mice, vs control diet",12 fold
same,increase of cystinuria,"[5]; Ctns KO mice, vs control diet",7 fold
same,increase of lysinuria,"[5]; Ctns KO mice, vs control diet",2200 fold
same,increase of microalbuminuria vs control diet,"megalin pathway [6]; Ctns KO female mice, diet from 6-to-8 months of age",> twofold
same,Urine CC16/creatinine,megalin pathway [6]; [10],"18,257 ± 1488 μg/g"
same,Urine microalbumin/creatinine,megalin pathway [6]; [10],0.5 ± 0.2 (n = 8) mg/g
same,Body weight,[7],22.4 ± 0.3 g
same,Serum creatinine,[7]; serum,0.8 ± 0.1 mg/dL
same,Serum cystatin-C,[7]; serum,723.3 ± 32.7 ng/mL
same,Serum glucose,[7]; serum,172.4 ± 7.9 mg/dL
same,Serum phosphate,[7]; serum,9.5 ± 0.4 mg/dL
same,Serum urea,[7]; serum,43.2 ± 2.0 mg/dL
same,Daily creatinine output,[7]; urine,0.7 ± 0.1 mg/day
same,Diuresis,[7]; urine,5.3 ± 0.8 mL/day
same,Urine creatinine,[7]; urine,13.4 ± 1.2 mg/dL
same,Urine glucose/creatinine,[7]; urine,54.4 ± 4.5 g/g
same,Urine phosphate/creatinine,[7]; urine,4.8 ± 0.4 g/g
same,Urine urea/creatinine,[7]; urine,181.8 ± 11.6 g/g
N=C(N)NCCC[C@H](N)C(=O)O [arginine],IC50,porcine megalin [1]; [11],~60 mM
NCC(=O)O [glycine],SPR signal of amino-acid alone on megalin chip,porcine megalin [1],no signal was detected
same,effect on megalin:TC:B12 interaction,porcine megalin [1]; up to 100 mM,No detectable effect
same,effect on megalin binding of lysozyme,porcine megalin [2],No detectable effect
NCCCC[C@H](N)C(=O)O [lysine],IC50,porcine megalin [1]; [11],~25 mM
